Measured values published in ChEMBL document CHEMBL1201862, “PubChem BioAssay data set” (2004).
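Where inhibition never reached the appropriate level, the endpoint shown equals the highest concentration tested. Otherwise, values were interpolated linearly from a five-concentration, 48-hour dose response in 96-well plates. Abbreviation: GI50, concentration required for 50% inhibition of growth.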 Activity calls are given as the source filed them. No stated cut-off is given here; in the data, active = GI50 up to about 1.1 µM and inactive = higher.

Key:
Experiment in all cases: growth of human tumour cells (NCI), 48 h
A498 = tested on: A498
DLD-1 = tested on: DLD-1
DMS-273 = tested on: DMS-273
HOP-62 = tested on: HOP-62
K562 = tested on: K562
NCI-H522 = tested on: NCI-H522
SF-295 = tested on: SF-295
SF-539 = tested on: SF-539
SK-MEL-28 = tested on: SK-MEL-28
SK-OV-3 = tested on: SK-OV-3
SN12C = tested on: SN12C
SNB-75 = tested on: SNB-75
SNB-78 = tested on: SNB-78
SW-620 = tested on: SW-620
UACC-257 = tested on: UACC-257
UO-31 = tested on: UO-31
BT-549 = tested on: BT-549
HCT-15 = tested on: HCT-15
MCF7 = tested on: MCF7
NCI-H460 = tested on: NCI-H460

Row | SMILES | GI50 (A498) | GI50 (DLD-1) | GI50 (DMS-273) | GI50 (HOP-62) | GI50 (K562) | GI50 (NCI-H522) | GI50 (SF-295) | GI50 (SF-539) | GI50 (SK-MEL-28) | GI50 (SK-OV-3) | GI50 (SN12C) | GI50 (SNB-75) | GI50 (SNB-78) | GI50 (SW-620) | GI50 (UACC-257) | GI50 (UO-31) | GI50 (BT-549) | GI50 (HCT-15) | GI50 (MCF7) | GI50 (NCI-H460)
1 | CCCCCCCCCCCCCCCCOCC(CP(=O)([O-])OCC[n+]1ccccc1)OC (configuration not stated) | 11.3 µM (inactive) | 2.81 µM (inactive) | 2.04 µM (inactive) | 11.6 µM (inactive) | 17.1 µM (inactive) | 17.3 µM (inactive) | 4.38 µM (inactive) | 14.6 µM (inactive) | 17 µM (inactive) | 17.7 µM (inactive) | 11.4 µM (inactive) | 8.45 µM (inactive) | 15.9 µM (inactive) | 14.9 µM (inactive) | 14.5 µM (inactive) | 9.4 µM (inactive) | – | – | – | –
2 | COc1ccc(C(=O)/C=C/c2ccc(OCC(=O)N3CCN(c4ccccc4)CC3)cc2)cc1 | 55.1 µM (inactive) | > 100 µM (inactive) | 29.8 µM (inactive) | 39.1 µM (inactive) | > 60.5 µM (inactive) | 17.7 µM (inactive) | 32.6 µM (inactive) | 18.9 µM (inactive) | > 100 µM (inactive) | 29.1 µM (inactive) | > 65.9 µM (inactive) | 23.7 µM (inactive) | 15.1 µM (inactive) | 72.4 µM (inactive) | > 100 µM (inactive) | 44.2 µM (inactive) | 24.9 µM (inactive) | 54.7 µM | 78.2 µM (inactive) | 82.4 µM (inactive)
3 | CC(C)=CC1(C)/C(=N\O)C(C)(CC(C)C)C(=O)N1O (configuration not stated) | > 100 µM (inactive) | > 100 µM (inactive) | > 100 µM (inactive) | > 100 µM (inactive) | > 100 µM (inactive) | > 100 µM (inactive) | > 100 µM (inactive) | > 100 µM (inactive) | > 100 µM (inactive) | > 100 µM (inactive) | > 100 µM (inactive) | > 100 µM (inactive) | > 100 µM (inactive) | > 100 µM (inactive) | > 100 µM (inactive) | > 100 µM (inactive) | – | > 100 µM | – | > 100 µM (inactive)
4 | NC(=S)N1N=C2CCCCCC[C@@H]2[C@H]1c1ccccc1 | 75 µM (inactive) | 56.2 µM (inactive) | 34.2 µM (inactive) | > 100 µM (inactive) | 32.8 µM (inactive) | 21.2 µM (inactive) | 35.3 µM (inactive) | > 100 µM (inactive) | 89.7 µM (inactive) | > 100 µM (inactive) | 86.1 µM (inactive) | 75.2 µM (inactive) | > 100 µM (inactive) | 28.6 µM (inactive) | 36.6 µM (inactive) | 16.7 µM (inactive) | – | 28.4 µM | – | 35.2 µM (inactive)
5 | CC(=O)NC1=C(N)C(=O)c2ccccc2C1=O | > 100 µM (inactive) | 31.4 µM (inactive) | > 100 µM (inactive) | > 100 µM (inactive) | 57.5 µM (inactive) | 79.4 µM (inactive) | > 100 µM (inactive) | > 100 µM (inactive) | – | > 100 µM (inactive) | 54.7 µM (inactive) | > 100 µM (inactive) | > 100 µM (inactive) | 14.9 µM (inactive) | > 100 µM (inactive) | > 100 µM (inactive) | – | 47.6 µM | – | 20 µM (inactive)
6 | N#CC1CCCCCCCCCCC(=O)N(CCCl)C1=O (configuration not stated) | > 100 µM (inactive) | > 100 µM (inactive) | > 100 µM (inactive) | > 100 µM (inactive) | > 100 µM (inactive) | > 100 µM (inactive) | > 100 µM (inactive) | > 100 µM (inactive) | > 100 µM (inactive) | > 100 µM (inactive) | > 100 µM (inactive) | > 100 µM (inactive) | > 100 µM (inactive) | > 100 µM (inactive) | > 100 µM (inactive) | > 100 µM (inactive) | – | – | – | > 100 µM (inactive)
7 | COC(=O)c1nc(-c2ccc(Cl)c(Cl)c2)nc2ccccc12 | 27.4 µM (inactive) | > 25.2 µM (inactive) | 26.2 µM (inactive) | 14.3 µM (inactive) | > 100 µM (inactive) | > 100 µM (inactive) | 12 µM (inactive) | 24.2 µM (inactive) | > 59.3 µM (inactive) | 9.91 µM (inactive) | > 100 µM (inactive) | 5.04 µM (inactive) | 34.4 µM (inactive) | > 21 µM (inactive) | > 29.6 µM (inactive) | 43.4 µM (inactive) | – | > 100 µM | – | > 34 µM (inactive)
8 | COc1cc2c(cc1OCc1ccccc1)CNCC2 | > 100 µM (inactive) | > 100 µM (inactive) | > 100 µM (inactive) | > 100 µM (inactive) | > 100 µM (inactive) | > 100 µM (inactive) | > 100 µM (inactive) | > 100 µM (inactive) | > 100 µM (inactive) | > 100 µM (inactive) | > 100 µM (inactive) | > 100 µM (inactive) | > 100 µM (inactive) | 24.3 µM (inactive) | > 100 µM (inactive) | > 100 µM (inactive) | – | > 100 µM | – | > 100 µM (inactive)
9 | CC1C(c2ccccc2)N(C)C(c2ccccc2)C(C)C1(O)c1ccccc1 (configuration not stated) | 42.3 µM (inactive) | > 100 µM (inactive) | 40.7 µM (inactive) | > 100 µM (inactive) | > 100 µM (inactive) | > 100 µM (inactive) | 46.7 µM (inactive) | > 100 µM (inactive) | > 100 µM (inactive) | > 100 µM (inactive) | > 100 µM (inactive) | 73.3 µM (inactive) | > 100 µM (inactive) | 54 µM (inactive) | > 100 µM (inactive) | > 100 µM (inactive) | – | 84.1 µM | – | 34.4 µM (inactive)
10 | Cn1cnc([N+](=O)[O-])c1Sc1nnc(C(F)(F)F)n1C | > 100 µM (inactive) | 16.4 µM (inactive) | 25.6 µM (inactive) | > 100 µM (inactive) | 23.4 µM (inactive) | 10.4 µM (inactive) | > 100 µM (inactive) | 20.5 µM (inactive) | 18.7 µM (inactive) | > 100 µM (inactive) | 40.2 µM (inactive) | 84.1 µM (inactive) | 26.2 µM (inactive) | 18.6 µM (inactive) | 17.3 µM (inactive) | 26.5 µM (inactive) | – | – | – | > 100 µM (inactive)
